Where two headings read alike, the source gives them in different places.
Assays:
Format in all cases: biochemical
NRAS Q61K = NRAS Q61K (Homo sapiens (Human), UniProt P01111+P62937, Q61K); assay: Ras-Raf (BRAF RBD) disruption / FRET / MOA assay, NRAS Q61K; settings: NRAS Q61K; Ras-Raf disruption/FRET/MOA assay; read-out: IC50* NRAS Q61K FRET data
Outline: (§1)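 TR-FRET disruption of nucleotide-loaded Ras binding to BRAF RBD via compound-driven ternary complex with cyclophilin A. Compound as 10-point 3-fold series from 30 μM final, 3 h at 25° C, then anti-His Eu-W1024 (10 nM) and anti-GST allophycocyanin (50 nM) for 1.5 h. IC50 from decreased FRET ratio versus DMSO.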

KRAS G12D = KRAS G12D (Homo sapiens (Human), UniProt P01116+P62937, G12D); assay: Ras-Raf (BRAF RBD) disruption / FRET / MOA assay, KRAS G12D; settings: Ras-Raf disruption/FRET/MOA assay; class symbols; read-out: KRAS G12D FRET data IC50
KRAS G12D, sequence (P01116-2 other isoform, or with tags, fused parts or gaps G12D): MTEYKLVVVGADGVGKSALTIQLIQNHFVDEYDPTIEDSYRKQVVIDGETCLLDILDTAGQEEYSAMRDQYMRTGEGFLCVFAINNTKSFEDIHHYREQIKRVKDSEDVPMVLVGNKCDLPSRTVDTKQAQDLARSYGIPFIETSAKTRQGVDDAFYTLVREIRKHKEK
KRAS G12D, sequence (P62937 whole entry): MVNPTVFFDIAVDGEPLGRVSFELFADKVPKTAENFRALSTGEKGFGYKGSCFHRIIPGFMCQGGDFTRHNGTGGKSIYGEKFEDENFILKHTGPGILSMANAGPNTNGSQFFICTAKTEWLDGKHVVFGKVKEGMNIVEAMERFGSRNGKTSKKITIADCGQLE
Outline: (§2)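 Ras:RAF disruption was scored as a fall in TR-FRET ratio relative to DMSO. Compound ranged in 3-fold steps over 10 points from 30 μM final; incubation ran 3 h at 25° C, detection antibodies a further 1.5 h. Reported as IC50.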

KRAS G12S = KRAS G12S (Homo sapiens (Human), UniProt P01116+P62937, G12S); assay: Ras-Raf (BRAF RBD) disruption / FRET / MOA assay, KRAS G12S; settings: Ras-Raf disruption/FRET/MOA assay; class symbols; read-out: KRAS G12S FRET data IC50
KRAS G12S, sequence (P01116-2 other isoform, or with tags, fused parts or gaps G12S): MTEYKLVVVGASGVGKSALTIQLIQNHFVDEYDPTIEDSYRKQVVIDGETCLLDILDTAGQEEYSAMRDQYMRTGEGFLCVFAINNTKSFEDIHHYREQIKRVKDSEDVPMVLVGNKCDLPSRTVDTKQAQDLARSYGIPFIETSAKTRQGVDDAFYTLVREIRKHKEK
KRAS G12S, sequence (P62937 whole entry): as the sequence (P62937 whole entry) above
Outline: as §2

K-Ras G13C = K-Ras G13C (Homo sapiens (Human), UniProt P01116+P62937, G13C); assay: Ras-Raf (BRAF RBD) disruption / FRET / MOA assay, KRAS G13C
K-Ras G13C, sequence (P01116-2 other isoform, or with tags, fused parts or gaps G13C): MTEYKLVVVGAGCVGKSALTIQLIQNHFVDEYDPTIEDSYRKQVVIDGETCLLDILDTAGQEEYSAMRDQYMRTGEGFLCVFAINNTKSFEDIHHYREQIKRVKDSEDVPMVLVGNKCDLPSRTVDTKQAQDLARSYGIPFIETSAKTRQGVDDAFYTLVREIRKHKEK
K-Ras G13C, sequence (P62937 whole entry): as the sequence (P62937 whole entry) above
Outline: as §2

NRAS G12C = NRAS G12C (Homo sapiens (Human), UniProt P01111+P62937, G12C); assay: Ras-Raf (BRAF RBD) disruption / FRET / MOA assay, NRAS G12C
NRAS G12C, sequence (P01111 whole entry G12C): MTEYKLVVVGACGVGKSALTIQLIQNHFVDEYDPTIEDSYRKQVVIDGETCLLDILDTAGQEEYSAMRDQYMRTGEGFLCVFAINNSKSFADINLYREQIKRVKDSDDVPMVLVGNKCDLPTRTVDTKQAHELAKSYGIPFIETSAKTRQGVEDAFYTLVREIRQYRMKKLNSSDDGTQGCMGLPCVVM
NRAS G12C, sequence (P62937 whole entry): as the sequence (P62937 whole entry) above
Outline: as §2

NRAS Q61R = NRAS Q61R (Homo sapiens (Human), UniProt P01111+P62937, Q61R); assay: Ras-Raf (BRAF RBD) disruption / FRET / MOA assay, NRAS Q61R; settings: NRAS Q61R; Ras-Raf disruption/FRET/MOA assay; read-out: IC50* NRAS Q61R FRET data
NRAS Q61R, sequence (P01111 whole entry Q61R): as the sequence (P01111 whole entry G12C) above, with C12G, Q61R counted along it
NRAS Q61R, sequence (P62937 whole entry): as the sequence (P62937 whole entry) above
Outline: as §1

KRAS Q61H = KRAS Q61H (Homo sapiens (Human), UniProt P01116+P62937, Q61H); assay: Ras-Raf (BRAF RBD) disruption / FRET / MOA assay, KRAS Q61H; settings: Ras-Raf disruption/FRET/MOA assay; class symbols; read-out: KRAS Q61H FRET data IC50
KRAS Q61H, sequence (P01116-2 other isoform, or with tags, fused parts or gaps Q61H): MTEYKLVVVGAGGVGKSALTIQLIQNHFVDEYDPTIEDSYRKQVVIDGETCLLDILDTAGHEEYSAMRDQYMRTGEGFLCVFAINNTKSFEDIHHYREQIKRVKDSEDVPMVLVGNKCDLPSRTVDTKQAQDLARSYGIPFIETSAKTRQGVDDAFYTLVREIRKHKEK
KRAS Q61H, sequence (P62937 whole entry): as the sequence (P62937 whole entry) above
Outline: as §1

KRAS WT = KRAS WT (Homo sapiens (Human), UniProt P01116+P62937); assay: Ras-Raf (BRAF RBD) disruption / FRET / MOA assay, KRAS WT; settings: read-out: IC50* KRAS WT FRET data
KRAS WT, sequence (P01116-2 other isoform, or with tags, fused parts or gaps): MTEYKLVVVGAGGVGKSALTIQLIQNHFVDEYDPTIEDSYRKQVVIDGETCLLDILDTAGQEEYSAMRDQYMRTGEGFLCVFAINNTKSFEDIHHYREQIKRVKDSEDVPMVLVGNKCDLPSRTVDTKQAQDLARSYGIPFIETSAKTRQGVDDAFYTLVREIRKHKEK
KRAS WT, sequence (P62937 whole entry): as the sequence (P62937 whole entry) above
Outline: as §2

K-Ras G12C = K-Ras G12C (Homo sapiens (Human), UniProt P01116+P62937, G12C); assay: Ras-Raf (BRAF RBD) disruption / FRET / MOA assay, KRAS G12C
K-Ras G12C, sequence (P01116-2 other isoform, or with tags, fused parts or gaps G12C): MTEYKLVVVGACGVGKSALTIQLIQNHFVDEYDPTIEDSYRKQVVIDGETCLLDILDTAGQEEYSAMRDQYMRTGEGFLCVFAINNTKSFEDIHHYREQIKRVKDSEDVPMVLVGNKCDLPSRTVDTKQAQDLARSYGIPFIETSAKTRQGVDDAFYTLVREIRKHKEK
K-Ras G12C, sequence (P62937 whole entry): as the sequence (P62937 whole entry) above
Outline: as §2

KRAS G13D = KRAS G13D (Homo sapiens (Human), UniProt P01116+P62937, G13D); assay: Ras-Raf (BRAF RBD) disruption / FRET / MOA assay, KRAS G13D
KRAS G13D, sequence (P01116-2 other isoform, or with tags, fused parts or gaps G13D): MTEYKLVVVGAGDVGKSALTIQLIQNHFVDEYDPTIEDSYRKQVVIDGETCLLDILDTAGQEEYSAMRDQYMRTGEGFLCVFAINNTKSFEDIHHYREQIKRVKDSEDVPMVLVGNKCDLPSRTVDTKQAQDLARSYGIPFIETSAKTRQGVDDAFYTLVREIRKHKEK
KRAS G13D, sequence (P62937 whole entry): as the sequence (P62937 whole entry) above
Outline: as §2

[1] = KRAS G13C, Ras-Raf disruption/FRET/MOA assay, read-out: IC50* KRAS G13C FRET data
[2] = read-out: IC50* NRAS G12C FRET data
[3] = KRAS G12C, Ras-Raf disruption/FRET/MOA assay, read-out: IC50* KRAS G12C FRET data
[4] = read-out: IC50* KRAS G13D FRET data

Measured: IC50

NRAS Q61K, sequence (P01111 whole entry Q61K): as the sequence (P01111 whole entry G12C) above, with C12G, Q61K counted along it
NRAS Q61K, sequence (P62937 whole entry): as the sequence (P62937 whole entry) above

C=C(F)C(=O)N1CC(N(C)C(=O)N(C)[C@H](C(=O)N[C@H]2Cc3nc(cs3)-c3ccc4c(c3)c(c(-c3cccnc3[C@H](C)OC)n4CC)CC(C)(C)COC(=O)[C@@H]3CCCN(N3)C2=O)C(C)C)C1 (atropisomer, axis not shown) [Example A732]
0.1 to 1 µM: NRAS Q61K | KRAS G12S | K-Ras G13C; [1] | NRAS G12C; [2] | NRAS Q61R | KRAS Q61H | KRAS WT | K-Ras G12C; [3]
1 to 10 µM: KRAS G12D | KRAS G13D; [4]

C=CC(=O)N1CCN(C(=O)N(C)[C@H](C(=O)N[C@H]2Cc3nc(cs3)-c3ccc4c(c3)c(c(-c3cccnc3[C@H](C)OC)n4CC)CC(C)(C)COC(=O)[C@@H]3CCCN(N3)C2=O)C(C)C)[C@H]2C[C@H]21 (atropisomer, axis not shown) [Example A737]
0.01 to 0.1 µM: NRAS Q61K | K-Ras G13C; [1] | NRAS G12C; [2] | NRAS Q61R | KRAS Q61H | KRAS WT | K-Ras G12C; [3]
0.1 to 1 µM: KRAS G12D | KRAS G12S | KRAS G13D; [4]

C=CS(=O)(=O)N1CCC(C(=O)N(C)[C@H](C(=O)N[C@H]2Cc3nc(cs3)-c3ccc4c(c3)c(c(-c3cncnc3)n4CC)CC(C)(C)COC(=O)[C@@H]3CCCN(N3)C2=O)C(C)C)C1 (single isomer, unassigned) [Example A170]
1 to 10 µM: K-Ras G13C; [1] | NRAS G12C; [2] | K-Ras G12C; [3]
> 10 µM: NRAS Q61K | KRAS G12D | KRAS G12S | NRAS Q61R | KRAS Q61H | KRAS WT | KRAS G13D; [4]

C=CS(=O)(=O)N1CCC(C(=O)N(C)[C@H](C(=O)N[C@H]2Cc3cccc(c3)-c3ccc4c(c3)c(c(-c3cncnc3)n4CC)CC(C)(C)COC(=O)[C@@H]3CCCN(N3)C2=O)C(C)C)C1 (single isomer, unassigned) [Example A171]
1 to 10 µM: K-Ras G13C; [1] | NRAS G12C; [2] | K-Ras G12C; [3]
> 10 µM: NRAS Q61K | KRAS G12D | KRAS G12S | NRAS Q61R | KRAS Q61H | KRAS WT | KRAS G13D; [4]

C=CC(=O)N1CC[C@H](C(=O)N(C)[C@H](C(=O)N[C@H]2Cc3cc(ccn3)-c3ccc4c(c3)c(c(-c3cccnc3COC)n4CC)CC(C)(C)COC(=O)[C@@H]3CCCN(N3)C2=O)C(C)C)C1 [Example A136]
1 to 10 µM: NRAS G12C; [2] | KRAS Q61H | K-Ras G12C; [3]
> 10 µM: NRAS Q61K | KRAS G12D | KRAS G12S | K-Ras G13C; [1] | NRAS Q61R | KRAS WT | KRAS G13D; [4]

C=CC(=O)N1CC[C@H](C(=O)N(C)[C@H](C(=O)N[C@H]2Cc3cc(O)cc(c3)-c3ccc4c(c3)c(c(-c3cncs3)n4CC)CC(C)(C)COC(=O)[C@@H]3CCCN(N3)C2=O)C(C)C)C1 [Example A143]
0.1 to 1 µM: NRAS G12C; [2] | K-Ras G12C; [3]
1 to 10 µM: NRAS Q61K | KRAS G12S | KRAS Q61H
> 10 µM: KRAS G12D | K-Ras G13C; [1] | NRAS Q61R | KRAS WT | KRAS G13D; [4]

C=CC(=O)N1CC[C@H](C(=O)N(C)[C@H](C(=O)N[C@H]2Cc3cc(O)cc(c3)-c3ccc4c(c3)c(c(-c3cccc(=O)n3C(C)C)n4CC)CC(C)(C)COC(=O)[C@@H]3CCCN(N3)C2=O)C(C)C)C1 [Example A151]
> 10 µM: KRAS G12D | K-Ras G13C; [1] | NRAS Q61R | KRAS WT | KRAS G13D; [4]
1 to 10 µM: NRAS Q61K | KRAS G12S | KRAS Q61H
0.1 to 1 µM: NRAS G12C; [2] | K-Ras G12C; [3]

C=CC(=O)N1CC[C@H](C(=O)N(C)[C@H](C(=O)N[C@H]2Cc3cc(O)cc(c3)-c3ccc4c(c3)c(c(-c3cccnc3)n4[C@H](C)C#N)CC(C)(C)COC(=O)[C@@H]3CCCN(N3)C2=O)C(C)C)C1 [Example A193]
> 10 µM: KRAS G12D
10.2 µM: K-Ras G13C; with Cyclophilin A, BRAF RBD, read-out: FRET (K-Ras G13C) IC50
1 to 10 µM: NRAS Q61K | K-Ras G13C; [1] | NRAS Q61R | KRAS WT | KRAS G13D; [4]
0.01 to 0.1 µM: K-Ras G12C; [3]
0.1 to 1 µM: KRAS G12S | NRAS G12C; [2] | KRAS Q61H
0.295 µM: K-Ras G12C; with Cyclophilin A, BRAF RBD, read-out: FRET (K-Ras G12C) IC50

C=CC(=O)N1CC[C@H](C(=O)N(C)[C@H](C(=O)N[C@H]2Cc3cc(O)cc(c3)-c3ccc4c(c3)c(c(-c3c(C)cccc3C)n4CC)CC(C)(C)COC(=O)[C@@H]3CCCN(N3)C2=O)C(C)C)C1 [Example A226]
0.1 to 1 µM: NRAS G12C; [2] | K-Ras G12C; [3]
1 to 10 µM: KRAS G12S | KRAS Q61H
> 10 µM: NRAS Q61K | KRAS G12D | K-Ras G13C; [1] | NRAS Q61R | KRAS WT | KRAS G13D; [4]

C=CC(=O)N1CC[C@H](C(=O)N(C)[C@H](C(=O)N[C@H]2Cc3cc(O)cc(c3)-c3ccc4c(c3)c(c(-c3cccc5c3COC5)n4CC)CC(C)(C)COC(=O)[C@@H]3CCCN(N3)C2=O)C(C)C)C1 [Example A227]
1 to 10 µM: NRAS Q61K | KRAS G12S | K-Ras G13C; [1] | KRAS Q61H | KRAS WT
0.1 to 1 µM: NRAS G12C; [2] | K-Ras G12C; [3]
> 10 µM: KRAS G12D | NRAS Q61R | KRAS G13D; [4]

C=CC(=O)N1CC[C@H](C(=O)N(C)[C@H](C(=O)N[C@H]2Cc3cc(O)cc(c3)-c3ccc4c(c3)c(c(-c3ncn(C)c3[C@H](C)OC)n4CC)CC(C)(C)COC(=O)[C@@H]3CCCN(N3)C2=O)C(C)C)C1 [Example A301]
0.1 to 1 µM: NRAS G12C; IC50* NRAS G12C FRET data | K-Ras G12C; IC50* KRAS G12C FRET data, KRAS G12C, Ras-Raf disruption/FRET/MOA assay
1 to 10 µM: KRAS G12S | K-Ras G13C; [1] | KRAS Q61H
> 10 µM: NRAS Q61K | KRAS G12D | NRAS Q61R | KRAS WT | KRAS G13D; IC50* KRAS G13D FRET data

C=CC(=O)N1CC[C@H](C(=O)N(C)[C@H](C(=O)N[C@H]2Cc3cc(O)cc(c3)-c3ccc4c(c3)c(c(-c3cnc(N(C)C)s3)n4CC)CC(C)(C)COC(=O)[C@@H]3CCCN(N3)C2=O)C(C)C)C1 [Example A302]
0.1 to 1 µM: K-Ras G13C; [1] | NRAS G12C; [2] | K-Ras G12C; [3]
1 to 10 µM: KRAS G12S | KRAS Q61H | KRAS WT | KRAS G13D; [4]
> 10 µM: NRAS Q61K | KRAS G12D | NRAS Q61R

— patent publication US11566007B2, “Ras inhibitors” (Revolution Medicines, Inc., priority 2019, dated 2023)
